# ChEMBL document CHEMBL4739716, “Gpr139 receptor modulators” (2020)
# Legend:
# [1] = biological target: T1, Probable G-protein coupled receptor 139 (Homo sapiens, UniProt Q6DWJ6); experiment: Agonist activity at human GPR139 expressed in CHO-K1 cells assessed as increase in calcium flux by calcium 5 dye based FLIPR assay; format: functional, cell-based
# T1 sequence (Q6DWJ6 whole entry): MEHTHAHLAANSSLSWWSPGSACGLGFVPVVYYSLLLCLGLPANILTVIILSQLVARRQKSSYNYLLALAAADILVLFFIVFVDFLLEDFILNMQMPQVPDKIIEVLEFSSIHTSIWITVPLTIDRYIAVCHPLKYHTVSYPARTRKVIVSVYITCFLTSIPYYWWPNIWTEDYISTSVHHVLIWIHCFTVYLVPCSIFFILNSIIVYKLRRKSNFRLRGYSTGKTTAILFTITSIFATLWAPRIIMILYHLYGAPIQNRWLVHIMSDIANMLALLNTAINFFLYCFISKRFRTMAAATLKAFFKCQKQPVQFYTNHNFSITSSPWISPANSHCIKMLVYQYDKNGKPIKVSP
# [2] = biological target: T2, Probable G-protein coupled receptor 139 (Homo sapiens) (UniProt Q6DWJ6); experiment: Agonist activity at human GPR139 expressed in CHO-K1 cells assessed as increase in calcium flux by calcium 5 dye based FLIPR assay relative to JNJ63533054; format: functional, cell-based
# T2 sequence (whole entry): T1 sequence (Q6DWJ6 whole entry)
# [3] = biological target: T3, Probable G-protein coupled receptor 139 (Rattus norvegicus, UniProt P0C0W8); experiment: Agonist activity at rat GPR139 expressed in CHO-K1 cells assessed as increase in calcium flux by calcium 5 dye based FLIPR assay; format: cell-based
# T3 sequence (P0C0W8 whole entry): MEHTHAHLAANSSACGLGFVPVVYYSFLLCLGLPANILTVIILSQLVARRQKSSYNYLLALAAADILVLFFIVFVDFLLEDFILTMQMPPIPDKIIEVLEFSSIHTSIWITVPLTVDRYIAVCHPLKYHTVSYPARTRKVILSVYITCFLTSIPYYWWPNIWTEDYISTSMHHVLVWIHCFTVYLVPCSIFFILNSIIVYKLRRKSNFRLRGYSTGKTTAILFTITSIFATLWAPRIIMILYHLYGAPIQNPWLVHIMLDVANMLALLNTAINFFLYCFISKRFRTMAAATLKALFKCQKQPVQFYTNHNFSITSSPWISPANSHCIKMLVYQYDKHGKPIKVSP
# [4] = biological target: T4, Probable G-protein coupled receptor 139 (Rattus norvegicus) (UniProt P0C0W8); experiment: Agonist activity at rat GPR139 expressed in CHO-K1 cells assessed as increase in calcium flux by calcium 5 dye based FLIPR assay relative to JNJ63533054; format: cell-based
# T4 sequence (whole entry): T3 sequence (P0C0W8 whole entry)
# [5] = biological target: T1, Probable G-protein coupled receptor 139; experiment: Agonist activity at human GPR139 expressed in CHO-K1 cells assessed as induction of beta-arrestin 2 recruitment incubated for 90 mins by PathHunter assay; format: cell-based
# [6] = biological target: T2, Probable G-protein coupled receptor 139 (Homo sapiens); experiment: Agonist activity at human GPR139 expressed in CHO-K1 cells assessed as induction of beta-arrestin 2 recruitment incubated for 90 mins by PathHunter assay relative to JNJ63533054; format: cell-based
SMILES,EC50 [1] [nM],Emax ([2]; filed as agonist) [%],EC50 ([3]; cho-k1) [nM],Emax ([4]; filed as agonist) [%],EC50 [5] [nM],Emax ([6]; filed as agonist) [%],EC50 [3] [nM],Emax [6] [%],EC50 ([1]; cho-k1) [nM],EC50 ([5]; cho-k1) [nM],Emax [4] [%],Emax [2] [%]
C[C@H](NC(=O)Cn1nc2cccc(N3CCCCC3)n2c1=O)c1ccc(OC(F)(F)F)cc1,< 1,50,1,50,< 1,50,–,–,–,–,–,–
O=C(Cn1nc2ccc(F)cn2c1=O)NC1(c2cccc(Cl)c2)CC1,≥ 100,> 80,–,50,≥ 100,–,≥ 100,25,–,–,–,–
C[C@H](NC(=O)Cn1nc2c(C(F)F)nccn2c1=O)c1ccc(OC(F)(F)F)cc1,–,> 80,–,50,< 1,–,≥ 100,25,1,–,–,–
COc1cccc2nn(CC(=O)N[C@@H](C)c3ccc(OC(F)(F)F)cc3)c(=O)n12,< 1,> 80,1,50,–,> 80,–,–,–,1,–,–
C[C@H](NC(=O)Cn1nc2c(NCC(F)F)ccnn2c1=O)c1ccc(OC(F)(F)F)cc1,< 1,> 80,1,–,–,–,–,25,–,1,25,–
Cc1ccc([C@H](C)NC(=O)Cn2nc3cc(C)ccn3c2=O)cc1,< 1,> 80,–,50,–,50,< 1,–,–,1,–,–
Cc1ccc([C@H](C)NC(=O)Cn2nc3cccnn3c2=O)cc1Cl,–,> 80,1,50,≥ 100,> 80,–,–,1,–,–,–
C[C@H](NC(=O)Cn1nc2cc(Cl)cnn2c1=O)c1ccc(OC(F)(F)F)cc1,–,> 80,1,50,≥ 100,–,–,25,1,–,–,–
COc1cccc2nn(CC(=O)N[C@@H](C)c3ccc(C)cc3)c(=O)n12,< 1,> 80,1,50,–,–,–,25,–,1,–,–
CNc1ccnn2c(=O)n(CC(=O)N[C@@H](C)c3ccc(OC(F)(F)F)cc3)nc12,< 1,> 80,1,50,–,50,–,–,–,10,–,–
Cc1cc(Cl)ccc1[C@H](C)NC(=O)Cn1nc2ccccn2c1=O,–,> 80,1,50,–,> 80,–,–,1,1,–,–
C[C@H](NC(=O)Cn1nc2ccccn2c1=O)c1ccc(-c2ccccc2)cc1,–,–,–,–,≥ 100,–,–,< 25,10,–,–,25
O=C(Cn1nc2cccnn2c1=O)N[C@H](c1ccc(Cl)c(F)c1)C1CC1,–,50,–,–,≥ 100,–,–,< 25,1,–,–,–
C[C@H](NC(=O)Cn1nc2ccc(C3CC3)nn2c1=O)c1ccc(Cl)c(F)c1,< 1,> 80,–,–,–,50,–,–,–,1,–,–
C[C@H](NC(=O)Cn1nc2c(N3CCOCC3)ccnn2c1=O)c1ccc(Cl)c(F)c1,< 1,> 80,–,–,≥ 100,> 80,–,–,–,–,–,–
CC(C)Oc1ccc([C@H](C)NC(=O)Cn2nc3ccccn3c2=O)cc1,–,50,–,–,–,–,≥ 100,–,10,–,25,–
C[C@H](NC(=O)Cn1nc2ccc(N3CCCCC3)nn2c1=O)c1ccc(OC(F)(F)F)cc1,–,–,–,–,–,–,≥ 100,–,10,–,< 25,25
Cc1ccn2c(=O)n(CC(=O)N[C@@H](C)c3ccc(OC(F)(F)F)cc3)nc2n1,–,50,–,–,–,–,≥ 100,–,1,–,< 25,–
Cc1ccc([C@H](C)NC(=O)Cn2nc3cnccn3c2=O)cc1,–,> 80,–,50,–,–,≥ 100,–,10,–,–,–

# Continued, values first:
EC50 [1] [nM],Emax ([2]; filed as agonist) [%],EC50 ([3]; cho-k1) [nM],Emax ([4]; filed as agonist) [%],EC50 [5] [nM],Emax ([6]; filed as agonist) [%],EC50 [3] [nM],Emax [6] [%],EC50 ([1]; cho-k1) [nM],EC50 ([5]; cho-k1) [nM],Emax [4] [%],Emax [2] [%],SMILES
–,–,10,–,≥ 100,–,–,–,10,–,–,–,CC(C(=O)N[C@@H](C)c1ccc(Cl)c(F)c1)n1nc2cccnn2c1=O (stereo in doubt; I-6-1) [listing 1 of 2 here]
–,> 80,–,> 80,–,50,–,–,–,–,–,–,CC(C(=O)N[C@@H](C)c1ccc(Cl)c(F)c1)n1nc2cccnn2c1=O (stereo in doubt; I-6-2) [listing 1 of 2 here]
≥ 100,50,–,–,≥ 100,–,≥ 100,< 25,–,–,< 25,–,C[C@H](NC(=O)Cn1nc2ncccn2c1=O)c1ccc(C2CC2)cc1
–,> 80,–,–,–,50,–,–,–,–,25,–,Cc1ccc([C@H](C)NC(=O)C(C)n2nc3ccccn3c2=O)cc1 (stereo in doubt; form 3)
–,–,–,–,–,–,≥ 100,–,–,1,–,–,CC(C(=O)N[C@@H](C)c1ccc(Cl)c(F)c1)n1nc2ncccn2c1=O (stereo in doubt; form 2) [listing 1 of 2 here]
–,> 80,1,50,–,50,–,–,1,1,–,–,C[C@H](NC(=O)Cn1nc2cc(C#N)ccn2c1=O)c1ccc(Cl)c(F)c1
–,> 80,–,50,–,> 80,–,–,–,–,–,–,CC(C(=O)N[C@@H](C)c1ccc(Cl)c(F)c1)n1nc2ccccn2c1=O (stereo in doubt; form 1) [listing 1 of 2 here]
–,> 80,10,–,≥ 100,50,–,–,1,–,25,–,C[C@H](NC(=O)Cn1nc2ncccn2c1=O)c1ccc(C2CC2)c(F)c1
≥ 100,> 80,–,50,≥ 100,–,< 1,25,–,–,–,–,C[C@@H](NC(=O)Cn1nc2ccccn2c1=O)c1ccc(Cl)c(F)c1
–,–,10,–,≥ 100,–,–,–,1,–,–,–,CC(C(=O)N[C@@H](C)c1ccc(Cl)c(F)c1)n1nc2ncccn2c1=O (stereo in doubt; form 1) [listing 1 of 2 here]
–,> 80,–,50,–,–,–,25,–,–,–,–,CC(C(=O)N[C@@H](C)c1ccc(Cl)c(F)c1)n1nc2cccnn2c1=O (stereo in doubt; I-6-1) [listing 2 of 2 here]
–,–,1,–,–,–,–,–,1,10,–,–,CC(C(=O)N[C@@H](C)c1ccc(Cl)c(F)c1)n1nc2ccccn2c1=O (stereo in doubt; form 2) [listing 1 of 2 here]
–,–,–,–,≥ 100,–,< 1,–,–,–,–,–,Cc1ccc([C@H](C)NC(=O)C(C)n2nc3ccccn3c2=O)cc1 (stereo in doubt; form 2) [listing 1 of 2 here]
–,> 80,–,> 80,–,> 80,–,–,–,–,–,–,Cc1ccc([C@H](C)NC(=O)C(C)n2nc3ccccn3c2=O)cc1 (stereo in doubt; form 2) [listing 2 of 2 here]
–,–,1,–,–,–,–,–,1,10,–,–,CC(C(=O)N[C@@H](C)c1ccc(Cl)c(F)c1)n1nc2cccnn2c1=O (stereo in doubt; I-6-2) [listing 2 of 2 here]
–,> 80,–,–,–,50,–,–,–,–,25,–,CC(C(=O)N[C@@H](C)c1ccc(Cl)c(F)c1)n1nc2ncccn2c1=O (stereo in doubt; form 2) [listing 2 of 2 here]
< 1,–,–,–,< 1,–,< 1,–,–,–,–,–,CC(C(=O)N[C@@H](C)c1ccc(Cl)c(F)c1)n1nc2ccccn2c1=O (stereo in doubt; form 1) [listing 2 of 2 here]
< 1,> 80,–,–,–,> 80,–,–,–,1,–,–,COc1ccnn2c(=O)n(CC(=O)N[C@@H](C)c3ccc(Cl)c(F)c3)nc12
< 1,> 80,–,–,–,> 80,–,–,–,1,–,–,CNc1ccnn2c(=O)n(CC(=O)N[C@@H](C)c3ccc(Cl)c(F)c3)nc12
–,> 80,–,50,–,50,–,–,–,–,–,–,CC(C(=O)N[C@@H](C)c1ccc(Cl)c(F)c1)n1nc2ncccn2c1=O (stereo in doubt; form 1) [listing 2 of 2 here]
–,> 80,–,–,–,50,–,–,–,–,25,–,CC(C(=O)N[C@@H](C)c1ccc(Cl)c(F)c1)n1nc2ccccn2c1=O (stereo in doubt; form 2) [listing 2 of 2 here]
–,> 80,–,–,–,–,≥ 100,–,10,–,< 25,–,C[C@H](NC(=O)Cn1nc2ncccn2c1=O)c1ccc(OC(F)(F)F)cc1
–,> 80,10,50,–,–,–,–,1,–,–,–,C[C@H](NC(=O)Cn1nc2c(N3CCNCC3)nccn2c1=O)c1ccc(Cl)c(F)c1
< 1,> 80,–,–,–,50,–,–,–,1,–,–,C[C@H](NC(=O)Cn1nc2c(C(F)(F)F)ccnn2c1=O)c1ccc(Cl)c(F)c1
